Reference: ChEMBL document CHEMBL1131888, “Synthesis, dopamine and serotonin transporter binding affinities of novel analogues of meperidine” (Bioorg Med Chem Lett, 1999)

What was measured:
[1] = target: Sodium-dependent serotonin transporter (Rattus norvegicus, UniProt P31652); experiment: Displacement of [3H]paroxetine from serotonin transporter (SERT)
[2] = target: Sodium-dependent dopamine transporter (Rattus norvegicus, UniProt P23977); experiment: Displacement of [3H]WIN-35428 from dopamine transporter (DAT)
Chain of Sodium-dependent dopamine transporter (P23977 whole entry): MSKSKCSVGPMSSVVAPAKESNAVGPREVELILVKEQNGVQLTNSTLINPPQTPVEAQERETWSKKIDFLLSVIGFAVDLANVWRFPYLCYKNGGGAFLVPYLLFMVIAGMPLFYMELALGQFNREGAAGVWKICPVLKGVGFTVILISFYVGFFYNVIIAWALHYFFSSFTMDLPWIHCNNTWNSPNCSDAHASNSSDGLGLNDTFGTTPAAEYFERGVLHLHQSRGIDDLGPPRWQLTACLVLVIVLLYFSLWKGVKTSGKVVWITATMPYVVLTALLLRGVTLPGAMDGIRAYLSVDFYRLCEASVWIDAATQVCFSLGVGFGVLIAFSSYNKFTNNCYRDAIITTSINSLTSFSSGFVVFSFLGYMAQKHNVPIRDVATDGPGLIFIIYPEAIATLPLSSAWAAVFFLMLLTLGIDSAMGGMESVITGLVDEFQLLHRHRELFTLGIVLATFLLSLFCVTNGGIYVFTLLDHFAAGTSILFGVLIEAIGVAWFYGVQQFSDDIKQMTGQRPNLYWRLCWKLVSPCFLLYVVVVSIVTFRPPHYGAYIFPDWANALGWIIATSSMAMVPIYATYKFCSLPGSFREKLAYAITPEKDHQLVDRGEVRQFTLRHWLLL

[3] = target: Monoamine transporters; serotonin & dopamine (Rattus norvegicus) (UniProt P31652+P23977); experiment: Relative affinity for dopamine and serotonin transporters; assay type: protein assay
Chain of Monoamine transporters; serotonin & dopamine (Rattus norvegicus) (P23977 whole entry, looked up): as the sequence (P23977 whole entry) above
Chain of Monoamine transporters; serotonin & dopamine (Rattus norvegicus) (P31652 whole entry, looked up): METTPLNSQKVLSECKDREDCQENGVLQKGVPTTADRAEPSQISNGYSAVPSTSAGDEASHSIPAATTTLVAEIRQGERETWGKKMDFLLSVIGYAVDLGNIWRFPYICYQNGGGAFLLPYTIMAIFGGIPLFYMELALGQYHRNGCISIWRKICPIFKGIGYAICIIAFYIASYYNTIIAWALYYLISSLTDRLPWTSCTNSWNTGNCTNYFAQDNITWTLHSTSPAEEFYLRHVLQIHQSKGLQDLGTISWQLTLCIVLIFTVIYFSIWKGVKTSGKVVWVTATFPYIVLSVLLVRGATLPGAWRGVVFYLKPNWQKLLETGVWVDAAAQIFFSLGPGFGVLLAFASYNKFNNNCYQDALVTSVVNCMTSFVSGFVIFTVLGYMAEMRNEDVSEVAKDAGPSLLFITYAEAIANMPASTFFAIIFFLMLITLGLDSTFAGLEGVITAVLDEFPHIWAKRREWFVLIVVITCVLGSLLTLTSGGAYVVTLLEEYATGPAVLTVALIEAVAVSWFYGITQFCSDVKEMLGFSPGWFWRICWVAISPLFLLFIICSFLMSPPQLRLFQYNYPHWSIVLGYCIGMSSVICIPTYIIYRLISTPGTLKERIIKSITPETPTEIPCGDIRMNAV

[4] = target: Sodium-dependent dopamine transporter (Rattus norvegicus) (UniProt P23977); experiment: Inhibition of binding affinity for dopamine transporter (DAT) by competition against bound [3H]WIN-35428 tested in vitro at a dose of 100 uM
Chain of Sodium-dependent dopamine transporter (Rattus norvegicus) (P23977 whole entry): as the sequence (P23977 whole entry) above

Chain of Sodium-dependent serotonin transporter (P31652 whole entry): as the sequence (P31652 whole entry, looked up) above

Compound | Ki [1] [nM] | Ki [2] [µM] | Selectivity [3] | inhibition [4] [%]
CCOC(=O)C1(c2ccc3ccccc3c2)CCN(C)CC1 | 7.2 | 1.14 | 158 | 
CCOC(=O)C1(c2ccc(I)cc2)CCN(C)CC1 | 21 | 3.25 | 155 | 
CN1CCC(C#N)(c2ccc(F)cc2)CC1 | 10100 |  |  | 45
CN1CCC(C#N)(c2ccc(I)cc2)CC1 | 430 |  | 19.4 | 
CCOC(=O)C1(c2ccc(F)cc2)CCN(C)CC1 | 308 | 10.7 | 34.7 | 
CN1CCC(C#N)(c2ccc3ccccc3c2)CC1 | 125 | 2.36 | 18.9 | 
CCOC(=O)C1(c2ccc(Cl)cc2)CCN(C)CC1 | 277 | 4.1 | 14.8 | 79
CN1CCC(C#N)(c2cccc3ccccc23)CC1 | 1020 | 16 | 16.7 | 
CN1CCC(C#N)(c2ccc(Cl)c(Cl)c2)CC1 | 805 | 2.67 | 3.32 | 
CCOC(=O)C1(c2ccc(C)cc2)CCN(C)CC1 | 1610 | 12.4 | 7.69 | 68
CCOC(=O)C1(c2ccc(Cl)c(Cl)c2)CCN(C)CC1 | 19 | 0.125 | 6.68 | 
CN1CCC(C#N)(c2ccc(Cl)cc2)CC1 | 5110 | 22 | 4.31 | 79
Cc1ccc(C2(C#N)CCN(C)CC2)cc1 | 13700 | 41.8 | 3.06 | 68
